Measurements published in patent US10563197B2, “Use of a combination of Dbait molecule and PARP inhibitors to treat cancer” (INSTITUT CURIE, priority 2015, dated 2020).

Assays:
[1] = tested on: MD227 human breast cancer cell lines grafted in the fat pad; assay: In vivo test on tumor growth, breast cancer xenograft; conditions: DT01 2.5 mg intratumoral and 2.5 mg subcutaneous daily for 5 days; Olaparib 200 mg/kg/day per os, 5 daily sessions; or both
Procedure: Nude mice with xenografted MD227 human breast cancer cell lines grafted in the fat pad were treated by intratumoral administration of DT01 (5 mg/day) and Olaparib (200 mg/kg/day). Tumor growth was monitored (time zero: beginning of treatment). Eight to ten animals were treated per group (group 1: vehicle injection (grey line); group 2: DT01 (black dotted line); group 3: Olaparib (grey dotted line); group 4; DT01+ Olaparib (black line)). Treatment was administered 5 following days.
Human breast cancer xenograft tumors were obtained by injecting 4.10^6 tumor cells into the fat pad of adult female nude mice (Janvier, Le Genest Saint Isle, France). The animals were housed in the laboratory for at least 1 week before starting experiments. There were six animals per cage under controlled conditions of light and dark cycles (12 h: 12 h), relative humidity (55%), and temperature (21° C.). Food and tap water were available ad libitum. […] Mice were weighed every week and followed up for 280 days. For ethical reasons, the animals were sacrificed when tumors reached 1500 mm^3. The Local Committee on Ethics of Animal Experimentation approved all experiments.

[2] = tested on: MO59J; assay: Cell survival, trypan blue counting; assay type: cell-based, human; conditions: 4.80 μM of AsiDNA and/or 0.1 μM of Ola; day 6 after treatment
Procedure: (§4) Cells were grown according to the supplier's instructions. Cell lines were maintained at 37° C. in a humidified atmosphere at 5% CO2.
(§5) AsiDNA or PARPi cytotoxicity was measured by relative survival and cell death quantification. Adherent cells were seeded in 24-well culture plates at appropriate densities and incubated 24 hours at 37° C. before AsiDNA and/or PARPi addition. Cells were harvested day 6aftertreatment, stained with 0.4% trypan blue (Sigma Aldrich, Saint-Louis, USA) and counted with a Burker chamber. Cell survival was calculated as ratio of living treated cells to living mock-treated cells. Cell death was calculated as the number of dead cells on the total number of counted cells. Additivity of the toxicity was calculated by the product of cell survivals to AsiDNA and cell survivals to PARPi.

[3] = tested on: 3 immortalized mammary cell lines (MCF10A, MCF12A and 184B5); assay: Cell death and proliferation in non-tumor controls; assay type: cell-based, human; conditions: 0.1 μM for Ola and 4.8 μM for AsiDNA
Procedure: (§1) Efficacy of Ola and AsiDNA was assessed by measuring cell death and proliferation in 12BC cell lines including 4BRCA-mutated cell lines (FIGS. 4A and B and FIG. 5). In addition, HeLa cells silenced for BRCA1 or BRCA2 genes were used as a control of BRCA mutation factor and 3 immortalized mammary cell lines (MCF10A, MCF12A and 184B5) as non-tumor controls. The concentration of the drugs (0.1 μM for Ola and 4.8 μM for AsiDNA) were chosen based on the 75-80% survival in the BC227 BRCA2^−/− mutant. […] Ola and AsiDNA treatments had no effect on the three control non-tumor cell lines.
(§2) Cells were grown according to the supplier's instructions.

[4] = tested on: BC227; assay: Cell survival, trypan blue counting; assay type: cell-based, human; conditions: 4.80 μM of AsiDNA and/or 0.1 μM of Ola; day 6 after treatment; listed as Ola
Procedure: as §4, §5

[5] = tested on: 3 BC cell lines; assay: Combined treatment survival in BC cell lines (FIG. 6, 7, 12); assay type: cell-based, human; conditions: FIG. 7
Procedure: (§3) Efficacy of AsiDNA (4. 8 μM), olaparib (0, 0.1 and 1 μM) or both was monitored 6 days after treatment by cell counting after trypan blue labeling. (A) Percentage of living cells relative to non-treated condition (NT). (B) Percentage of dead cells. Data are expressed as mean+Sc.D. of at least 2 independent experiments. Dotted lines indicate the calculated cell survivals if additivity between AsiDNA and olaparib.
Efficacy of AsiDNA (4.8 μM), veliparib (0, 10 and 50 μM) or both was monitored 6 days after treatment by trypan blue staining. (A) Percentage of living cells relative to non-treated condition (NT). (B) Percentage of dead cells. Dotted lines indicate the calculated cell survivals if additivity between AsiDNA and veliparib.
The inventors monitored cell survival to combined treatment of 3 BC and 2 non-tumor cell lines with different sensitivities to Ola and AsiDNA alone (FIG. 6; Table 1). […] However, the combination remained more efficient or at least equal to the expected additive effect at all the tested doses. […] In contrast, the normal cells were insensitive to both, the combined and the single treatments with AsiDNA and Ola (FIG. 6; Table 1).

[6] = tested on: BRCA^−/− cell lines; assay: Cell death and proliferation in BRCA-mutated cell lines; assay type: cell-based, human; conditions: 0.1 μM Ola, 4.8 μM AsiDNA; sensitive = difference in % dead cells higher than two-fold
Procedure: as §1, §2

[7] = tested on: SK28 Lsh DNA-PKcs; assay: Cell survival, trypan blue counting; assay type: cell-based, human; conditions: 4.80 μM of AsiDNA and/or 0.1 μM of Ola; day 6 after treatment
Procedure: as §4, §5

[8] = tested on: Breast cancer cell lines MDAMB231; assay: Cell survival with DT01 and PARP inhibitors (Example 1, FIG. 1); assay type: cell-based, human; conditions: DT01 100 or 333 μg/ml plus Olaparib 0.1, 1 μM or Veliparib 1, 10, 50 μM; 6 days
Procedure: Breast cancer cell lines MDAMB231 were treated with 100 μg/ml (Black, Squares) or 333 μg/ml (Grey, Crosses) of DT01 or no DT01 (Black, Diamond) and exposed to either 0, 0.1 and 1 μM of Olaparib (upper panel) or 1, 10 and 50 μM Veliparib (lower panel). Survival was measured 6 days after treatment using trypan blue to detect living cells. The data are presented as % of the non-treated control.
The human cell lines were grown in complete RPMI (Gibco, Cergy Pontoise, France) supplemented with 10% fetal bovine serum (ATGC, Orléans, France), 1% sodium pyruvate, streptomycin ([…]) and penicillin ([…]) (Invitrogen, Carlsbad, Calif., USA). Cells were maintained at 37° C. under a 5% CO2 atmosphere, at 100% humidity. Treatments were performed by adding nucleotides (DT01 and others) or/and PARP inhibitors at time zero in medium without serum. The medium was changed with fresh medium containing fetal bovine serum 24 hours after beginning of treatment. Cells were let to grow for 4 additional days (5 days after treatment), treated with trypsin and counted for total number of cells. Trypan blue (0.4%) was added for counting the living cells (uncolored) in the population.

[9] = tested on: HeLa BRCA2 SX; assay: Cell survival, trypan blue counting; assay type: cell-based, human; conditions: 4.80 μM of AsiDNA and/or 0.1 μM of Ola; day 6 after treatment
Procedure: as §4, §5

[10] = tested on: 2 non-tumor cell lines; assay: Combined treatment survival in non-tumor cell lines (FIG. 6, 12); assay type: cell-based, human; conditions: AsiDNA 4.8 μM, olaparib 0.1 and 1 μM; 6 days
Procedure: as §3
(A) Percentage of living cells relative to non-treated condition (NT). (B) Percentage of dead cells. Dotted lines indicate the calculated cell survivals if additivity between AsiDNA and veliparib.
The inventors monitored cell survival to combined treatment of 3 BC and 2 non-tumor cell lines with different sensitivities to Ola and AsiDNA alone (FIG. 6; Table 1).

[11] = tested on: MCF10A; assay: Cell survival, trypan blue counting; assay type: cell-based, human; conditions: 4.80 μM of AsiDNA and/or 0.1 μM of Ola; day 6 after treatment
Procedure: as §4, §5

[12] = tested on: HCT116 KU70^+/−; assay: Cell survival, trypan blue counting; assay type: cell-based, human; conditions: 4.80 μM of AsiDNA and/or 0.1 μM of Ola; day 6 after treatment
Procedure: as §4, §5

[13] = tested on: HeLa PARP1 KD; assay: Cell survival, trypan blue counting; assay type: cell-based, human; conditions: 4.80 μM of AsiDNA and/or 0.1 μM of Ola; day 6 after treatment
Procedure: as §4, §5

[14] = tested on: MO59K; assay: Cell survival, trypan blue counting; assay type: cell-based, human; conditions: 4.80 μM of AsiDNA and/or 0.1 μM of Ola; day 6 after treatment
Procedure: as §4, §5

SMILES: O=C(c1cc(Cc2n[nH]c(=O)c3ccccc23)ccc1F)N1CCN(C(=O)C2CC2)CC1 [Olaparib, 4-[(3-[(4-cyclopropylcarbonyl)piperazin-4-yl]carbonyl)-4-fluorophenyl]methyl(2H)-phthalazin-1-one]
- local skin toxicity or systemic toxicity [1]: No local skin toxicity or systemic toxicity
- Survival (%/NT) [2]: 87.5 %/NT
- effect on cell death and proliferation [3]: no effect
- Survival (%/NT) [4]: 75.3 %/NT
- dose dependence of efficacy of single treatments [5]: dose dependent
- sensitivity to treatment [6]: sensitive to both treatments
- Survival (%/NT) [7]: 80.9 %/NT
- survival to combined treatment with DT01 versus expected added effect of both single treatments [8]: synergic effect
- Survival (%/NT) [9]: 65.0 %/NT
- sensitivity to combined and single treatments [10]: insensitive
- Survival (%/NT) [11]: 86.2 %/NT
- Survival (%/NT) [12]: 88.6 %/NT
- Survival (%/NT) [13]: 100.5 %/NT
- Survival (%/NT) [14]: 117.3 %/NT
